Article PMC7395068, “The evolution of strategies to minimise the risk of human drug-induced liver injury (DILI) in drug discovery and development” (Archives of Toxicology, 2020)
Read-outs that look alike come from different tables or passages of the source.

What was measured:
[1] = Plasma free fraction (fu) and unbound Cmax (Cmax,u); assay type: in vitro ADME, human; conditions: unbound plasma Cmax
human hepatocytes = conditions: cited from earlier work
[2] = read-out: Human plasma Cmax; total plasma Cmax.tot, median of 9 literature references; cited from earlier work
[3] = plasma free fraction; cited from earlier work
[4] = tested on: isolated mouse liver mitochondria; conditions: In vitro Assay; ref Porceddu 2012; cited from earlier work
hLiMTs = test: Combined HCI (HCS) and cellular ATP 3D assay in hLiMTs; conditions: for DILI prediction hLiMTs (HCS-MEC): Microtissue model structural based (HCI), combined HCS and ATP, MEC < 25 × Cmax.tot cut-off; for hLiMTs <25x Avg Cmax ATP / hLiMTs <100x Avg Cmaxu ATP: ATP endpoint; for hLiMTs <25x Avg Cmax ATP / hLiMTs <25x Avg Cmax HCS / hLiMTs <25x Avg Cmax All: cut-off <25x Avg Cmax; for hLiMTs <100x Avg Cmaxu ATP / hLiMTs <100x Avg Cmaxu HCS / hLiMTs <100x Avg Cmaxu All: cut-off <100x Avg Cmaxu; for hLiMTs <25x Avg Cmax HCS / hLiMTs <100x Avg Cmaxu HCS: HCS endpoints; for hLiMTs <25x Avg Cmax All: all endpoints (ATP and HCS); for hLiMTs Cmax max All / hLiMTs Cmax min All / hLiMTs <10 uM All / hLiMTs <100x Avg Cmaxu All: all endpoints; for hLiMTs Cmax max All: Cmax max used; for hLiMTs Cmax min All: Cmax min used; for hLiMTs <10 uM All: cut-off <10 uM
HepaRG spheroids = test: Combined HCI (HCS) and cellular ATP 3D assay in HepaRG spheroids; conditions: for HepaRG <25x Avg Cmax ATP / HepaRG <100x Avg Cmaxu ATP: ATP endpoint; for HepaRG <25x Avg Cmax ATP / HepaRG <25x Avg Cmax HCS / HepaRG <25x Avg Cmax All: cut-off <25x Avg Cmax; for HepaRG <100x Avg Cmaxu ATP / HepaRG <100x Avg Cmaxu HCS / HepaRG <100x Avg Cmaxu All: cut-off <100x Avg Cmaxu; for HepaRG <25x Avg Cmax HCS / HepaRG <100x Avg Cmaxu HCS: HCS endpoints; for HepaRG <25x Avg Cmax All: all endpoints (ATP and HCS); for HepaRG Cmax max All / HepaRG Cmax min All / HepaRG <10 uM All / HepaRG <100x Avg Cmaxu All: all endpoints; for HepaRG Cmax max All: Cmax max used; for HepaRG Cmax min All: Cmax min used; for HepaRG <10 uM All: cut-off <10 uM; for AC50 / minimal effective concentration: Homo sapiens; for HepaRG <25x Avg Cmax ATP / HepaRG <100x Avg Cmaxu ATP / HepaRG <25x Avg Cmax HCS / HepaRG <100x Avg Cmaxu HCS / HepaRG <25x Avg Cmax All / HepaRG Cmax max All / HepaRG Cmax min All / HepaRG <10 uM All / HepaRG <100x Avg Cmaxu All / AC50 / minimal effective concentration: HepaRG; for DILI prediction HepaRG spheroids (HCS-MEC): Microtissue model structural based (HCI), combined HCS and ATP, MEC < 25 × Cmax.tot cut-off
[5] = tested on: primary human hepatocytes, NIH3T3 fibroblasts, BSEP, CYP3A4; conditions: cited from earlier work
[6] = In vitro Assay, ref Schadt 2015

| Human plasma Cmax,u [1] [nM] | hLiMTs <25x Avg Cmax ATP (hLiMTs) | hLiMTs <100x Avg Cmaxu ATP (hLiMTs) | hLiMTs <25x Avg Cmax HCS (hLiMTs) | hLiMTs <100x Avg Cmaxu HCS (hLiMTs) | hLiMTs <25x Avg Cmax All (hLiMTs) | hLiMTs Cmax max All (hLiMTs) | hLiMTs Cmax min All (hLiMTs) | hLiMTs <10 uM All (hLiMTs) | hLiMTs <100x Avg Cmaxu All (hLiMTs) | HepaRG <25x Avg Cmax ATP (HepaRG spheroids) | HepaRG <100x Avg Cmaxu ATP (HepaRG spheroids) | HepaRG <25x Avg Cmax HCS (HepaRG spheroids) | HepaRG <100x Avg Cmaxu HCS (HepaRG spheroids) | HepaRG <25x Avg Cmax All (HepaRG spheroids) | HepaRG Cmax max All (HepaRG spheroids) | Structure (SMILES) | Cmax [2] [nM] | fu [3] | in vitro data EC2<=1x Cmax [4] | DILI prediction hLiMTs (HCS-MEC) (hLiMTs) | other results |
| --- | --- | --- | --- | --- | --- | --- | --- | --- | --- | --- | --- | --- | --- | --- | --- | --- | --- | --- | --- | --- | --- |
| 620 | -ve | -ve | -ve | -ve | -ve | -ve | -ve | -ve | -ve | +ve | -ve | +ve | +ve (<100x Avg Cmaxu) | +ve | +ve | CC[C@H]1OC(=O)[C@H](C)[C@@H](O[C@H]2C[C@@](C)(OC)[C@@H](O)[C@H](C)O2)[C@H](C)[C@@H](O[C@@H]2O[C@H](C)C[C@H](N(C)C)[C@H]2O)[C@](C)(O)C[C@@H](C)C(=O)[C@H](C)[C@@H](O)[C@]1(C)O [erythromycin] | 6200 | 0.100 | +VE | -VE | Structural based (HCI) (human hepatocytes; In vitro Assay, ref Xu 2008): -VE; DILI in vitro assay prediction, Xu (2008) (human hepatocytes; Structural based (HCI), human hepatocytes, ref Xu et al. 2008): -VE; HepaRG Cmax min All (HepaRG spheroids): +ve; HepaRG <10 uM All (HepaRG spheroids): -ve; HepaRG <100x Avg Cmaxu All (HepaRG spheroids): +ve (<100x Avg Cmaxu); AC50 (HepaRG spheroids; read-out: ATP endpoint AC50): 214 µM; minimal effective concentration (HepaRG spheroids; read-out: ATP endpoint MEC): 128 µM; AC50 (HepaRG spheroids; read-out: HCS endpoint AC50): 294 µM; minimal effective concentration (HepaRG spheroids; read-out: HCS endpoint MEC): 38.1 µM; DILI prediction HepaRG spheroids (HCS-MEC) (HepaRG spheroids): +VE (MEC < 25 × Cmax.tot cut-off) |
| 80 | -ve | -ve | -ve | -ve | -ve | -ve | -ve | -ve | -ve | -ve | -ve | -ve | -ve | -ve | -ve | CCOC(=O)CN[C@@H](C(=O)N1CC[C@H]1C(=O)NCc1ccc(/C(N)=N\O)cc1)C1CCCCC1 [ximelagatran] | 380 | 0.210 | -VE | -VE | DILI in vitro assay prediction, Schadt (2015) ([5]; BSEP & Metabolism based, ref Schadt et al. 2015): -VE; Cellular toxicity (3T3 cells) [5, 6]: -VE; Combined Assay [5, 6]: -VE; GSH adduct HML [5, 6]: -VE; Hepatocyte cellular toxicity [5, 6]: -VE; MitoTox 3T3 [5, 6]: -VE; TDI CYP3A4 [5, 6]: -VE; hBSEP inhibition [5, 6]: -VE; minimal effective concentration (hLiMTs; Homo sapiens, read-out: ATP endpoint MEC): 61.8 µM; HepaRG Cmax min All (HepaRG spheroids): -ve; HepaRG <10 uM All (HepaRG spheroids): -ve; HepaRG <100x Avg Cmaxu All (HepaRG spheroids): -ve; minimal effective concentration (HepaRG spheroids; read-out: ATP endpoint MEC): 149 µM; minimal effective concentration (HepaRG spheroids; read-out: HCS endpoint MEC): 133 µM; DILI prediction HepaRG spheroids (HCS-MEC) (HepaRG spheroids): -VE |
